# Source: patent US20250197403A1, “HETEROARYL COMPOUNDS FOR TREATMENT OF COMPLEMENT FACTOR D MEDIATED DISORDERS” (Achillion Pharmaceuticals, Inc., priority 2020, published 2025)
# pIC50: −log10 of the molar value.
# Target: Human Factor D (Homo sapiens (Human), UniProt P00746)
# Assay: Human Factor D Assay
# Assay type: biochemical
# Conditions: Human Factor D 80 nM, substrate Z-L-Lys-SBzl, assay according to Example 3
# Description: The assay according to Example 3 was used to determine the IC50's of the compounds. Other standard factor D inhibition assays are also available.
# Human Factor D (purified from human serum, Complement Technology, Inc.) at 80 nM final concentration is incubated with test compound at various concentrations for 5 min at room temperature in 50 mM Tris, 1M NaCl, pH 7.5. A synthetic substrate Z-L-Lys-SBzl and DTNB (Ellman's reagent) are added to final concentrations of 100 μM each. Absorbance at 405 nm (A405) is recorded at 30 second intervals for 30 min using a microplate spectrophotometer. IC50 values are calculated by nonlinear regression of complement Factor D reaction rates as a function of test compound concentration.
# Chain of Human Factor D (P00746 26-253): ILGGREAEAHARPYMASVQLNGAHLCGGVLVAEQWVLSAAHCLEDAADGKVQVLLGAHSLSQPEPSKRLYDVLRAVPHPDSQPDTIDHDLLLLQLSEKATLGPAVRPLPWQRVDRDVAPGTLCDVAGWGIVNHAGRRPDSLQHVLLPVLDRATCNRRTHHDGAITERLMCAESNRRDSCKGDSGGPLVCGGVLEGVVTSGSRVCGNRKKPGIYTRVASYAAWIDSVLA
row,Compound,pIC50
1,"COCc1ccc(C(F)(F)F)nc1NC(=O)[C@@H]1[C@@H]2C[C@@H]2CN1C(=O)Cn1cc(C(C)=O)c2cc(-c3cnc4cc(C)nn4c3)cc(C)c21 [Compound 7, (1R,2S,5S)-3-(2-(3-acetyl-7-methyl-5-(2-methylpyr-azolo[1,5-a]pyrimidin-6-yl)-1H-indol-1-yl)acetyl)-N-(3-(methoxymethyl)-6-(trifluoromethyl)pyridin-2-yl)-3-azabicyclo[3.1.0] hexane-2-carboxamide]",> 6.00
2,"CC(=O)c1cn(CC(=O)N2[C@H](C(=O)N[C@@H](C)C(F)=C(C)C)C[C@@]3(C)C[C@@H]23)c2c(C)cc(-c3cnc4cc(C)nn4c3)cc12 [Compound 30, (1R,3S,5R)-2-(2-(3-acetyl-7-methyl-5-(2-methylpyr-azolo[1,5-a]pyrimidin-6-yl)-1H-indol-1-yl)acetyl)-N-((S)-3-fluoro-4-methyl-pent-3-en-2-yl)-5-methyl-2-azabicyclo[3.1.0]hexane-3-carboxamide]",> 6.00
3,"CC(=O)c1cn(CC(=O)N2[C@H](C(=O)Nc3nc(C(F)(F)F)ccc3C)C[C@@]3(C)C[C@@H]23)c2c(C)cc(-c3cnc4cc(C#N)nn4c3)cc12 [Compound 13, (1R,3S,5R)-2-(2-(3-acetyl-5-(2-cyanopyrazolo[1,5-a]pyrimidin-6-yl)-7-methyl-1H-indol-1-yl)acetyl)-5-methyl-N-(3-methyl-6-(trifluoromethyl)pyridin-2-yl)-2-azabicyclo[3.1.0] hexane-3-carboxamide]",> 6.00
4,"COCc1ccc(C(F)(F)F)nc1NC(=O)[C@@H]1C[C@@]2(C)C[C@H]2N1C(=O)Cn1cc(C(C)=O)c2cc(-c3ccc4nc(C)nn4c3)cc(C)c21 [Compound 40, (1R,3S,5R)-2-(2-(3-acetyl-7-methyl-5-(2-methyl-[1,2,4]triazolo[1,5-a]pyr-idin-6-yl)-1H-indol-1-yl)-acetyl)-N-(3-(methoxy-methyl)-6-(trifluorometh-yl)pyridin-2-yl)-5-methyl-2-azabicyclo[3.1.0]hexane-3-carboxamide]",> 6.00
5,"CC(=O)c1cn(CC(=O)N2C[C@@](F)(CF)C[C@H]2C(=O)Nc2nc(C(F)(F)F)ccc2C)c2c(C)cc(-c3cnc4cc(C)nn4c3)cc12 [Compound 10, (2S,4R)-1-(2-(3-acetyl-7-methyl-5-(2-methylpyr-azolo[1,5-a]pyrimidin-6-yl)-1H-indol-1-yl)acetyl)-4-fluoro-4-(fluoromethyl)-N-(3-methyl-6-(trifluoro-methyl)pyridin-2-yl)pyr-rolidine-2-carboxamide]",> 6.00
6,"CC(=O)c1cn(CC(=O)N2[C@H](C(=O)Nc3nc(C(F)(F)F)ccc3C)C[C@@]3(C)C[C@@H]23)c2c(CF)cc(-c3cnc4cc(C)nn4c3)cc12 [Compound 46, (1R,3S,5R)-2-(2-(3-acetyl-7-(fluoromethyl)-5-(2-methylpyrazolo[1,5-a]pyr-imidin-6-yl)-1H-indol-1-yl)acetyl)-5-methyl-N-(3-methyl-6-(trifluorometh-yl)pyridin-2-yl)-2-azabi-cyclo[3.1.0]hexane-3-car-boxamide]",> 6.00
7,"CC(=O)c1cn(CC(=O)N2[C@H](C(=O)N[C@H](C)C(F)=C(C)C)C[C@@]3(C)C[C@@H]23)c2c(C)nc(-c3cnc4cc(C)nn4c3)cc12 [Compound 29, (1R,3S,5R)-2-(2-(3-acetyl-7-methyl-5-(2-methylpyr-azolo[1,5-a]pyrimidin-6-yl)-1H-pyrrolo[2,3-c]pyr-idin-1-yl)acetyl)-N-((R)-3-fluoro-4-methylpent-3-en-2-yl)-5-methyl-2-azabi-cyclo[3.1.0]hexane-3-car-boxamide]",> 6.00
8,"CC(=O)c1cn(CC(=O)N2[C@H](C(=O)Nc3nc(Br)ccc3C)C[C@@]3(C)C[C@@H]23)c2c(C)c(F)c(-c3cnc4cc(C)nn4c3)cc12 [Compound 50, (1R,3S,5R)-2-(2-(3-acetyl-6-fluoro-7-methyl-5-(2-methylpyrazolo[1,5-a]pyr-imidin-6-yl)-1H-indol-1-yl)acetyl)-N-(6-bromo-3-methylpyridin-2-yl)-5-methyl-2-zabicyclo[3.1.0] hexane-3-carboxamide]",> 6.00
9,"CC(=O)c1cn(CC(=O)N2[C@H](C(=O)Nc3nc(Br)ccc3Cl)C[C@@]3(C)C[C@@H]23)c2c(C)nc(-c3cnc(C)nc3)cc12 [Compound 21, (1R,3S,5R)-2-(2-(3-acetyl-7-methyl-5-(2-methylpyr-imidin-5-yl)-1H-pyrrolo [2,3-c]pyridin-1-yl)acetyl)-N-(6-bromo-3-chloropyr-idin-2-yl)-5-methyl-2-aza-bicyclo[3.1.0]hexane-3-carboxamide]",> 6.00
10,"CC(=O)c1cn(CC(=O)N2C[C@H](F)C[C@H]2C(=O)Nc2ccn(CC(F)(F)F)n2)c2ccc(-c3cnc4cc(C)nn4c3)cc12 [Compound 67, (2S,4R)-1-(2-(3-acetyl-5-(2-methylpyrazolo[1,5-a]pyrimidin-6-yl)-1H-indol-1-yl)acetyl)-4-fluoro-N-(1-(2,2,2-trifluoroethyl)-1H-pyrazol-3-yl)pyrrolidine-2-carboxamide]",> 6.00
11,"CC(=O)c1cn(CC(=O)N2[C@H](C(=O)Nc3nc(C(F)(F)F)ccc3C)C[C@@]3(C)C[C@@H]23)c2c(C)c(F)c(-c3cnc4cc(C)nn4c3)cc12 [Compound 49, (1R,3S,5R)-2-(2-(3-acetyl-6-fluoro-7-methyl-5-(2-methylpyrazolo[1,5-a]pyr-imidin-6-yl)-1H-indol-1-yl)acetyl)-5-methyl-N-(3-methyl-6-(trifluorometh-yl)pyridin-2-yl)-2-azabi-cyclo[3.1.0]hexane-3-car-boxamide]",> 6.00
12,"CC(=O)c1cn(CC(=O)N2[C@H](C(=O)Nc3nc(C(F)(F)F)cnc3C)C[C@@]3(C)C[C@@H]23)c2c(C)cc(-c3cnc(C)nc3)cc12 [Compound 59, (1R,3S,5R)-2-(2-(3-acetyl-7-methyl-5-(2-methylpyr-imidin-5-yl)-1H-indol-1-yl)acetyl)-5-methyl-N-(3-methyl-6-(trifluorometh-yl)pyrazin-2-yl)-2-azabi-cyclo[3.1.0]hexane-3-car-boxamide]",5.00 to 6.00
13,"CC(=O)c1cn(CC(=O)N2[C@H](C(=O)Nc3nc(C(F)(F)F)ccc3C#N)C[C@@]3(C)C[C@@H]23)c2c(C)cc(-c3cnc4cc(C)nn4c3)cc12 [Compound 14, (1R,3S,5R)-2-(2-(3-acetyl-7-methyl-5-(2-methylpyr-azolo[1,5-a]pyrimidin-6-yl)-1H-indol-1-yl)acetyl)-N-(3-cyano-6-(trifluoro-methyl)pyridin-2-yl)-5-methyl-2-azabicyclo[3.1.0] hexane-3-carboxamide]",> 6.00
14,"CC(=O)c1cn(CC(=O)N2[C@H](C(=O)Nc3nc(C(F)(F)F)ccc3C)C[C@@]3(C)C[C@@H]23)c2c(CO)cc(-c3cnc4cc(C)nn4c3)cc12 [Compound 43, (1R,3S,5R)-2-(2-(3-acetyl-7-(hydroxymethyl)-5-(2-methylpyrazolo[1,5-a]pyr-imidin-6-yl)-1H-indol-1-yl)acetyl)-5-methyl-N-(3-methyl-6-(trifluorometh-yl)pyridin-2-yl)-2-azabi-cyclo[3.1.0]hexane-3-car-boxamide]",> 6.00
15,"CC(=O)c1cn(CC(=O)N2C[C@H]3C[C@H]3[C@H]2C(=O)N[C@H](C)C(F)=C(C)C)c2c(C)cc(-c3cnc4cc(C)nn4c3)cc12 [Compound 35, (1R,2S,5S)-3-(2-(3-acetyl-7-methyl-5-(2-methylpyr-azolo[1,5-a]pyrimidin-6-yl)-1H-indol-1-yl)acetyl)-N-((R)-3-fluoro-4-methyl-pent-3-en-2-yl)-3-azabi-cyclo[3.1.0]hexane-2-car-boxamide]",> 6.00
16,"CC(=O)c1cn(CC(=O)N2C[C@H]3C[C@H]3[C@H]2C(=O)Nc2nc(Br)ccc2C)c2c(C)cc(-c3cnc4cc(C)nn4c3)cc12 [Compound 63, (1R,2S,5S)-3-(2-(3-acetyl-7-methyl-5-(2-methylpyr-azolo[1,5-a]pyrimidin-6-yl)-1H-indol-1-yl)acetyl)-N-(6-bromo-3-methylpyr-idin-2-yl)-3-azabicyclo [3.1.0]hexane-2-carbox-amide]",> 6.00
17,"CC(=O)c1cn(CC(=O)N2[C@H](C(=O)Nc3nc(C(F)(F)F)ccc3Cl)C[C@@]3(C)C[C@@H]23)c2c(C)nc(-c3cnc(C)nc3)cc12 [Compound 42, (1R,3S,5R)-2-(2-(3-acetyl-7-methyl-5-(2-methylpyr-imidin-5-yl)-1H-pyrrolo [2,3-c]pyridin-1-yl)acetyl)-N-(3-chloro-6-(trifluoro-methyl)pyridin-2-yl)-5-methyl-2-azabicyclo[3.1.0] hexane-3-carboxamide]",> 6.00
18,"CC(=O)c1cn(CC(=O)N2[C@H](C(=O)Nc3nc(Br)ccc3Cl)C[C@@]3(C)C[C@@H]23)c2c(C)cc(-c3cnc(C)nc3)cc12 [Compound 68, (1R,3S,5R)-2-(2-(3-acetyl-7-methyl-5-(2-methylpyr-imidin-5-yl)-1H-indol-1-yl)acetyl)-N-(6-bromo-3-chloropyridin-2-yl)-5-methyl-2-azabicyclo[3.1.0] hexane-3-carboxamide]",> 6.00
19,"CC(=O)c1nn(CC(=O)N(C)[C@@H](C)C(=O)Nc2nc(Br)ccc2C)c2cc3c(cc12)-c1cnc(C)nc1CC=C3 [Compound 109, (S)-2-(2-(11-acetyl-3-methylpyrimido[4′,5′:6,7]cyclohepta[1,2-f]indazol-9(5H)-yl)-N-methylacetamido)-N-(6-bromo-3-methylpyridin-2-yl)propanamide]",> 6.00
20,"CC(=O)c1cn(CC(=O)N2C[C@@](F)(CF)C[C@H]2C(=O)Nc2nc(C(F)(F)F)ccc2C)c2c(C)cc(-c3cnc(C)nc3)cc12 [Compound 61, (2S,4R)-1-(2-(3-acetyl-7-methyl-5-(2-methylpyrim-idin-5-yl)-1H-indol-1-yl)-acetyl)-4-fluoro-4-(fluoro-methyl)-N-(3-methyl-6-(trifluoromethyl)pyridin-2-yl)pyrrolidine-2-carbox-amide]",> 6.00
